Assay results taken from US10683272B2 (THE JOHNS HOPKINS UNIVERSITY, priority 2014, dated 2020).
“And” between values parts separate entries of the source, which are not always exact repeats. Equal values may be shown once.

Assay: radiation dosimetry (OLINDA/EXM) from baboon PET data
Type: Reference Adult Male based on baboon PET imaging data
Experimental: For each time-point, the activity concentration (in Bq/cm^3) was measured in each of the 14 delineated organs and multiplied by the organ volume to obtain the total activity per time point per organ. The measured values were then decay-corrected and divided by the baboon organ mass, determined by the CT density and volume from the drawn contours, and the injected radioactivity to obtain the fraction of initial radioactivity per gram (FIA/g) for each time point and each organ. The baboon FIA/g values were then converted to human FIA (per organ) using the following equation (Schwartz et al., 2011; Woodard et al., 1975): […]
That approach assumes that the concentration of activity in a particular tissue relative to the overall concentration in the whole body is preserved across species (i.e., organ concentration/total body concentration is the same for baboon and man). The resulting human FIA values were plotted as a function of time (nine data points) for each organ and fit to a bi-exponential expression: FIA(t)=A1.e^−(λ1^bio^.t)+A2.e^−(Δ2^bio^.t) (2)
where A1, A2, λ1bio, and λ2bio are fit parameters. The sum of A1 and A2 give the back-extrapolated, time-zero fraction of administered radioactivity in each organ, and λ1bio and λ2bio are the biological clearance constants. The equation for the time-integrated activity coefficient [TIAC, previously known as residence time (Bolch et al., 2009) for each source organ was obtained, as its name implies, by integrating equation (2) and introducing a physical decay term, λφ, which depends on the isotope used:
TIACs were calculated for ^90Y, ^177Lu and ^86Y, with their corresponding physical decay constants: ^90Y λφ=0.01083 h^−1 (T1/2=64.0 h); ^177Lu λφ=0.00429 h^−1 (T1/2=161.52 h) and ^86Y λφ=0.04702 h^−1 (T1/2=14.74 h), respectively voiding. Radiation absorbed doses were obtained by converting time-integrated activity to absorbed doses according to the MIRD absorbed fraction methodology (Bolch et al., 2009) through the use of the OLINDA/EXM software (Stabin et al., 2005). The TIAC for the urinary bladder was obtained using the MIRD bladder model implemented in OLINDA/EXM. Input to that model requires the whole-body TIAC, which was obtained from the equation FIA(t)=A. e^(−λ^bio^t) fitted to whole-body retention kinetics. The voiding interval was set to 2 h. The TIACs were then input into OLINDA/EXM (Stabin et al., 2005), and the resulting absorbed dose per unit of radioactivity obtained for the 14 organs. The specific kidney model in OLINDA/EXM was used to obtain the renal cortex dose values. The absorbed dose from organs external to the kidney was added to the renal cortex dose calculated from the internal kidney model. The specific prostate model was used for prostate self-dose, and external dose to the bladder was added as a surrogate for the whole body to prostate dose. The self-dose component of the absorbed dose per unit activity for the salivary glands was obtained using 3D-RD Monte Carlo (EGSnrc) and a human CT with delineated salivary glands. The cross-dose component was taken by assuming the same cross-dose for a like-sized organ (pancreas).
Measured activity concentration (in Bq/cm^3) values per time point per organ were decay-corrected and divided by the baboon organ mass, determined by the CT density and volume from the drawn contours, and the injected radioactivity to obtain the fraction of initial radioactivity per gram (FIA/g) for each time point and each organ. The baboon FIA/g values were then converted to human FIA (per organ) using the related equation (Olszewski et al., 2004; Schwartz et al., 2011). The resulting human FIA values were then plotted as a function of time and fit to a bi-exponential expression and the value for the time-integrated activity coefficient (TIAC, previously known as residence time (Woodard et al., 1975)) for each source organ was calculated. […]

## O=C([O-])CN1CCN(CC(=O)[O-])CCN(CC(=O)[O-])C(Cc2ccc(NC(=S)NCCCCNC(=O)CCCCCCC(=O)NCCCC[C@H](NC(=O)N[C@@H](CCC(=O)O)C(=O)O)C(=O)O)cc2)CN(CC(=O)[O-])CC1.[86Y+3] (some centres unmarked) [^86Y-6]
^86Y
  Organ absorbed dose, Adrenals: 8.62E−02 mGy/MBq
  Organ absorbed dose, Brain: 2.30E−02 mGy/MBq
  Organ absorbed dose, Breasts: 4.52E−02 mGy/MBq
  Organ absorbed dose, Gallbladder wall: 7.88E−02 mGy/MBq
  Organ absorbed dose, Heart wall: 6.70E−02 mGy/MBq
  Organ absorbed dose, Kidneys: 4.03E−01 mGy/MBq
  Organ absorbed dose, LLI wall: 9.61E−02 mGy/MBq
  Organ absorbed dose, Liver: 7.19E−02 mGy/MBq
  Organ absorbed dose, Lungs: 5.98E−02 mGy/MBq
  Organ absorbed dose, Muscle: 5.47E−02 mGy/MBq
  Organ absorbed dose, Osteogenic cells: 7.19E−02 mGy/MBq
  Organ absorbed dose, Ovaries: 9.48E−02 mGy/MBq
  Organ absorbed dose, Pancreas: 8.09E−02 mGy/MBq
  Organ absorbed dose, Prostate: 7.64E−02 mGy/MBq
  Organ absorbed dose, Red marrow: 6.29E−02 mGy/MBq
  Organ absorbed dose, Renal cortex: 4.24E−01 mGy/MBq
  Organ absorbed dose, Salivary glands: 1.78E−01 mGy/MBq
  Organ absorbed dose, Skin: 3.97E−02 mGy/MBq
  Organ absorbed dose, Small intestine: 8.72E−02 mGy/MBq
  Organ absorbed dose, Spleen: 7.23E−02 mGy/MBq
  Organ absorbed dose, Stomach wall: 6.69E−02 mGy/MBq
  Organ absorbed dose, Testes: 7.23E−02 mGy/MBq
  Organ absorbed dose, Thymus: 5.38E−02 mGy/MBq
  Organ absorbed dose, Thyroid: 5.07E−02 mGy/MBq
  Organ absorbed dose, ULI wall: 8.56E−02 mGy/MBq
  Organ absorbed dose, Urinary bladder wall: 6.17E−01 mGy/MBq
  Organ absorbed dose, Uterus: 1.34E−01 mGy/MBq
  Time-integrated activity coefficient (residence time), Brain: 1.41E−02 MBq-h/MBq
  Time-integrated activity coefficient (residence time), Heart contents: 2.55E−02 MBq-h/MBq
  Time-integrated activity coefficient (residence time), Kidneys: 4.08E−01 MBq-h/MBq
  Time-integrated activity coefficient (residence time), Liver: 1.37E−01 MBq-h/MBq
  Time-integrated activity coefficient (residence time), Lungs: 9.70E−02 MBq-h/MBq
  Time-integrated activity coefficient (residence time), Muscle: 4.76E−01 MBq-h/MBq
  Time-integrated activity coefficient (residence time), Pancreas: 6.37E−03 MBq-h/MBq
  Time-integrated activity coefficient (residence time), Prostate: 1.15E−03 MBq-h/MBq
  Time-integrated activity coefficient (residence time), Remainder: 3.64 MBq-h/MBq
  Time-integrated activity coefficient (residence time), Renal cortex: 3.23E−01 MBq-h/MBq
  Time-integrated activity coefficient (residence time), Salivary Glands: 4.45E−02 MBq-h/MBq
  Time-integrated activity coefficient (residence time), Small intestine: 9.31E−03 MBq-h/MBq
  Time-integrated activity coefficient (residence time), Spleen: 7.41E−03 MBq-h/MBq
  Time-integrated activity coefficient (residence time), Stomach: 6.44E−03 MBq-h/MBq
  Time-integrated activity coefficient (residence time), ULI: 1.99E−02 MBq-h/MBq
  Time-integrated activity coefficient (residence time), Ur. bladder contents: 7.41E−01 MBq-h/MBq
^86Y, calculated in OLINDA/EXM
  effective dose: 0.099 mSv/MBq
^90Y
  Organ absorbed dose, Adrenals: 3.46E−02 mGy/MBq
  Organ absorbed dose, Brain: 6.79E−03 mGy/MBq
  Organ absorbed dose, Breasts: 3.46E−02 mGy/MBq
  Organ absorbed dose, Gallbladder wall: 3.46E−02 mGy/MBq
  Organ absorbed dose, Heart wall: 5.33E−02 mGy/MBq
  Organ absorbed dose, Kidneys: 1.13 mGy/MBq
  Organ absorbed dose, LLI wall: 3.46E−02 mGy/MBq
  Organ absorbed dose, Liver: 4.99E−02 mGy/MBq
  Organ absorbed dose, Lungs: 6.57E−02 mGy/MBq
  Organ absorbed dose, Muscle: 1.32E−02 mGy/MBq
  Organ absorbed dose, Osteogenic cells: 5.26E−02 mGy/MBq
  Organ absorbed dose, Ovaries: 3.46E−02 mGy/MBq
  Organ absorbed dose, Pancreas: 4.64E−02 mGy/MBq
  Organ absorbed dose, Prostate: 4.78E−02 mGy/MBq
  Organ absorbed dose, Red marrow: 2.41E−02 mGy/MBq
  Organ absorbed dose, Renal cortex: 1.19 mGy/MBq
  Organ absorbed dose, Salivary glands: 2.79E−01 mGy/MBq
  Organ absorbed dose, Skin: 3.46E−02 mGy/MBq
  Organ absorbed dose, Small intestine: 4.29E−02 mGy/MBq
  Organ absorbed dose, Spleen: 1.64E−02 mGy/MBq
  Organ absorbed dose, Stomach wall: 3.46E−02 mGy/MBq
  Organ absorbed dose, Testes: 3.46E−02 mGy/MBq
  Organ absorbed dose, Thymus: 3.46E−02 mGy/MBq
  Organ absorbed dose, Thyroid: 3.46E−02 mGy/MBq
  Organ absorbed dose, ULI wall: 6.29E−02 mGy/MBq
  Organ absorbed dose, Urinary bladder wall: 1.25 mGy/MBq
  Organ absorbed dose, Uterus: 3.46E−02 mGy/MBq
  Time-integrated activity coefficient (residence time), Brain: 1.79E−02 MBq-h/MBq
  Time-integrated activity coefficient (residence time), Heart contents: 3.15E−02 MBq-h/MBq
  Time-integrated activity coefficient (residence time), Kidneys: 6.43E−01 MBq-h/MBq
  Time-integrated activity coefficient (residence time), Liver: 1.77E−01 MBq-h/MBq
  Time-integrated activity coefficient (residence time), Lungs: 1.22E−01 MBq-h/MBq
  Time-integrated activity coefficient (residence time), Muscle: 6.85E−01 MBq-h/MBq
  Time-integrated activity coefficient (residence time), Pancreas: 8.42E−03 MBq-h/MBq
  Time-integrated activity coefficient (residence time), Prostate: 1.42E−03 MBq-h/MBq
  Time-integrated activity coefficient (residence time), Remainder: 4.74 MBq-h/MBq
  Time-integrated activity coefficient (residence time), Renal cortex: 5.27E−01 MBq-h/MBq
  Time-integrated activity coefficient (residence time), Salivary Glands: 4.88E−02 MBq-h/MBq
  Time-integrated activity coefficient (residence time), Small intestine: 1.32E−02 MBq-h/MBq
  Time-integrated activity coefficient (residence time), Spleen: 1.15E−02 MBq-h/MBq
  Time-integrated activity coefficient (residence time), Stomach: 8.06E−03 MBq-h/MBq
  Time-integrated activity coefficient (residence time), ULI: 2.51E−02 MBq-h/MBq
  Time-integrated activity coefficient (residence time), Ur. bladder contents: 9.54E−01 MBq-h/MBq
^177Lu
  Organ absorbed dose, Adrenals: 6.96E−03 mGy/MBq
  Organ absorbed dose, Brain: 1.48E−03 mGy/MBq
  Organ absorbed dose, Breasts: 6.08E−03 mGy/MBq
  Organ absorbed dose, Gallbladder wall: 6.79E−03 mGy/MBq
  Organ absorbed dose, Heart wall: 9.54E−03 mGy/MBq
  Organ absorbed dose, Kidneys: 2.10E−01 mGy/MBq
  Organ absorbed dose, LLI wall: 7.06E−03 mGy/MBq
  Organ absorbed dose, Liver: 9.37E−03 mGy/MBq
  Organ absorbed dose, Lungs: 1.16E−02 mGy/MBq
  Organ absorbed dose, Muscle: 3.26E−03 mGy/MBq
  Organ absorbed dose, Osteogenic cells: 1.94E−02 mGy/MBq
  Organ absorbed dose, Ovaries: 7.05E−03 mGy/MBq
  Organ absorbed dose, Pancreas: 9.34E−03 mGy/MBq
  Organ absorbed dose, Prostate: 7.94E−03 mGy/MBq
  Organ absorbed dose, Red marrow: 5.04E−03 mGy/MBq
  Organ absorbed dose, Renal cortex: 0.245 mGy/MBq and 2.45E−01 mGy/MBq
  Organ absorbed dose, Salivary glands: 4.76E−02 mGy/MBq
  Organ absorbed dose, Skin: 6.01E−03 mGy/MBq
  Organ absorbed dose, Small intestine: 8.30E−03 mGy/MBq
  Organ absorbed dose, Spleen: 7.16E−03 mGy/MBq
  Organ absorbed dose, Stomach wall: 7.88E−03 mGy/MBq
  Organ absorbed dose, Testes: 6.56E−03 mGy/MBq
  Organ absorbed dose, Thymus: 6.29E−03 mGy/MBq
  Organ absorbed dose, Thyroid: 6.26E−03 mGy/MBq
  Organ absorbed dose, ULI wall: 1.16E−02 mGy/MBq
  Organ absorbed dose, Urinary bladder wall: 2.14E−01 mGy/MBq
  Organ absorbed dose, Uterus: 7.76E−03 mGy/MBq
  Time-integrated activity coefficient (residence time), Brain: 1.89E−02 MBq-h/MBq
  Time-integrated activity coefficient (residence time), Heart contents: 3.30E−02 MBq-h/MBq
  Time-integrated activity coefficient (residence time), Kidneys: 7.24E−01 MBq-h/MBq
  Time-integrated activity coefficient (residence time), Liver: 1.88E−01 MBq-h/MBq
  Time-integrated activity coefficient (residence time), Lungs: 1.28E−01 MBq-h/MBq
  Time-integrated activity coefficient (residence time), Muscle: 8.15E−01 MBq-h/MBq
  Time-integrated activity coefficient (residence time), Pancreas: 9.00E−03 MBq-h/MBq
  Time-integrated activity coefficient (residence time), Prostate: 1.48E−03 MBq-h/MBq
  Time-integrated activity coefficient (residence time), Remainder: 4.84 MBq-h/MBq
  Time-integrated activity coefficient (residence time), Renal cortex: 6.02E−01 MBq-h/MBq
  Time-integrated activity coefficient (residence time), Salivary Glands: 4.97E−02 MBq-h/MBq
  Time-integrated activity coefficient (residence time), Small intestine: 1.43E−02 MBq-h/MBq
  Time-integrated activity coefficient (residence time), Spleen: 1.29E−02 MBq-h/MBq
  Time-integrated activity coefficient (residence time), Stomach: 8.46E−03 MBq-h/MBq
  Time-integrated activity coefficient (residence time), ULI: 2.64E−02 MBq-h/MBq
  Time-integrated activity coefficient (residence time), Ur. bladder contents: 1.00 MBq-h/MBq
Overview text b262
  highest mean absorbed dose, renal cortex: 1.9 mGy per MBq
